System: 926638-142-R-J1-PDC complex spheroid viability
Assay: Anticancer human tumor 926638-142-R-J1-PDC patient-derived endometrial carcinoma cell line growth inhibition [POLQ]
Conditions: for IC50: curve of first compound; for viability, T/C: stronger effect = lower value
Outline: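 Complex spheroid viability model combining PDC tumour cells with endothelial (HUVEC) and MSC stromal cells. Novobiocin, ART-558 or RP6685 were tested singly and in combination with standard and investigational anticancer drugs. Each was titrated in half-log steps from near clinical Cmax, or from 10 microM where Cmax was unknown.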

[1] = second compound 0.0316 µM, first compound 0.0316 µM
[2] = second compound 0.0316 µM, first compound 0.1 µM
[3] = second compound 0.0316 µM, first compound 0.316 µM
[4] = second compound 0.0316 µM, first compound 1 µM
[5] = second compound 0.0316 µM, first compound 3.16 µM
[6] = second compound 0.0316 µM, first compound 10 µM
[7] = second compound 0.1 µM, first compound 0.0316 µM
[8] = second compound 0.1 µM, first compound 0.1 µM
[9] = second compound 0.1 µM, first compound 0.316 µM
[10] = second compound 0.1 µM, first compound 1 µM
[11] = second compound 0.1 µM, first compound 3.16 µM
[12] = second compound 0.1 µM, first compound 10 µM
[13] = second compound 0.316 µM, first compound 0.0316 µM
[14] = second compound 0.316 µM, first compound 0.1 µM
[15] = second compound 0.316 µM, first compound 0.316 µM
[16] = second compound 0.316 µM, first compound 1 µM
[17] = second compound 0.316 µM, first compound 3.16 µM
[18] = second compound 0.316 µM, first compound 10 µM
[19] = second compound 1 µM, first compound 0.0316 µM
[20] = second compound 1 µM, first compound 0.1 µM
[21] = second compound 1 µM, first compound 0.316 µM
[22] = second compound 1 µM, first compound 1 µM
[23] = second compound 1 µM, first compound 3.16 µM
[24] = second compound 1 µM, first compound 10 µM
[25] = second compound 3.16 µM, first compound 0.0316 µM
[26] = second compound 3.16 µM, first compound 0.1 µM
[27] = second compound 3.16 µM, first compound 0.316 µM
[28] = second compound 3.16 µM, first compound 1 µM
[29] = second compound 3.16 µM, first compound 3.16 µM
[30] = second compound 3.16 µM, first compound 10 µM
[31] = second compound 10 µM, first compound 0.0316 µM
[32] = second compound 10 µM, first compound 0.1 µM
[33] = second compound 10 µM, first compound 0.316 µM
[34] = second compound 10 µM, first compound 1 µM
[35] = second compound 10 µM, first compound 3.16 µM
[36] = second compound 10 µM, first compound 10 µM
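Further: spheroids exposed to drugs for one week before readout.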
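Wherever viability, T/C is given: percent viability relative to DMSO vehicle control wells set as 100%.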

CC1COCCN1c1cc(-c2ccnn2C)c2ccnc(-c3ccn[nH]3)c2n1 (stereo unspecified) + Nc1ccc(C#CCN(C(=O)Cc2ncc(C(F)(F)F)cc2C(F)(F)F)c2ccc(F)cc2)nn1
IC50 (second compound 0.0316 µM): 0.503 µM
IC50 (second compound 0.1 µM): 0.386 µM
IC50 (second compound 0.316 µM): 0.377 µM
IC50 (second compound 1 µM): 0.285 µM
IC50 (second compound 3.16 µM): 0.357 µM
IC50 (second compound 10 µM): 0.369 µM
viability, T/C [1]: 101%
viability, T/C [2]: 83.7%
viability, T/C [3]: 60.3%
viability, T/C [4]: 36.7%
viability, T/C [5]: 14%
viability, T/C [6]: 9.34%
viability, T/C [7]: 108%
viability, T/C [8]: 85.9%
viability, T/C [9]: 50.5%
viability, T/C [10]: 33.7%
viability, T/C [11]: 14.1%
viability, T/C [12]: 9.21%
viability, T/C [13]: 104%
viability, T/C [14]: 84.7%
viability, T/C [15]: 54.5%
viability, T/C [16]: 26.7%
viability, T/C [17]: 16.8%
viability, T/C [18]: 10.1%
viability, T/C [19]: 99.7%
viability, T/C [20]: 69.6%
viability, T/C [21]: 51.7%
viability, T/C [22]: 27.5%
viability, T/C [23]: 14.3%
viability, T/C [24]: 9.7%
viability, T/C [25]: 89.8%
viability, T/C [26]: 73.6%
viability, T/C [27]: 53.9%
viability, T/C [28]: 28.6%
viability, T/C [29]: 16.7%
viability, T/C [30]: 8.56%
viability, T/C [31]: 73.3%
viability, T/C [32]: 74.5%
viability, T/C [33]: 52.5%
viability, T/C [34]: 25.7%
viability, T/C [35]: 15.1%
viability, T/C [36]: 9.63%

CC1COCCN1c1cc(C2(S(C)(=N)=O)CC2)nc(-c2ccnc3[nH]ccc23)n1 (stereo unspecified) + Nc1ccc(C#CCN(C(=O)Cc2ncc(C(F)(F)F)cc2C(F)(F)F)c2ccc(F)cc2)nn1
IC50 (second compound 0.0316 µM): 5.2 µM
IC50 (second compound 0.1 µM): 4.68 µM
IC50 (second compound 0.316 µM): 5.47 µM
IC50 (second compound 1 µM): 4.85 µM
IC50 (second compound 3.16 µM): 3.93 µM
IC50 (second compound 10 µM): 5.63 µM
viability, T/C [1]: 111%
viability, T/C [2]: 108%
viability, T/C [3]: 93.2%
viability, T/C [4]: 82.3%
viability, T/C [5]: 71%
viability, T/C [6]: 28.3%
viability, T/C [7]: 111%
viability, T/C [8]: 110%
viability, T/C [9]: 97.4%
viability, T/C [10]: 77.9%
viability, T/C [11]: 63.6%
viability, T/C [12]: 28.9%
viability, T/C [13]: 99.4%
viability, T/C [14]: 104%
viability, T/C [15]: 91.9%
viability, T/C [16]: 84.3%
viability, T/C [17]: 65.9%
viability, T/C [18]: 32.8%
viability, T/C [19]: 103%
viability, T/C [20]: 106%
viability, T/C [21]: 90.4%
viability, T/C [22]: 80%
viability, T/C [23]: 64.4%
viability, T/C [24]: 28.9%
viability, T/C [25]: 100%
viability, T/C [26]: 98.9%
viability, T/C [27]: 99.5%
viability, T/C [28]: 92.6%
viability, T/C [29]: 54.7%
viability, T/C [30]: 29.7%
viability, T/C [31]: 98.5%
viability, T/C [32]: 90.6%
viability, T/C [33]: 87.9%
viability, T/C [34]: 90.9%
viability, T/C [35]: 70.2%
viability, T/C [36]: 29.8%

CCCS(=O)(=O)Nc1ccc(F)c(C(=O)c2c[nH]c3ncc(-c4ccc(Cl)cc4)cc23)c1F + Nc1ccc(C#CCN(C(=O)Cc2ncc(C(F)(F)F)cc2C(F)(F)F)c2ccc(F)cc2)nn1
IC50 (second compound 0.0316 µM): 7.88 µM
IC50 (second compound 0.1 µM): > 10 µM
IC50 (second compound 0.316 µM): 8.9 µM
IC50 (second compound 1 µM): 8.58 µM
IC50 (second compound 3.16 µM): 8.43 µM
IC50 (second compound 10 µM): 6.87 µM
viability, T/C [1]: 99.5%
viability, T/C [2]: 90.5%
viability, T/C [3]: 103%
viability, T/C [4]: 85.7%
viability, T/C [5]: 80%
viability, T/C [6]: 42.2%
viability, T/C [7]: 111%
viability, T/C [8]: 85.7%
viability, T/C [9]: 103%
viability, T/C [10]: 81.8%
viability, T/C [11]: 94.5%
viability, T/C [12]: 50.9%
viability, T/C [13]: 90.4%
viability, T/C [14]: 97.9%
viability, T/C [15]: 100%
viability, T/C [16]: 99.9%
viability, T/C [17]: 87.1%
viability, T/C [18]: 45.3%
viability, T/C [19]: 105%
viability, T/C [20]: 92.1%
viability, T/C [21]: 93.3%
viability, T/C [22]: 92.8%
viability, T/C [23]: 80.4%
viability, T/C [24]: 44.8%
viability, T/C [25]: 89.8%
viability, T/C [26]: 83.6%
viability, T/C [27]: 90.5%
viability, T/C [28]: 87.8%
viability, T/C [29]: 88.6%
viability, T/C [30]: 43.4%
viability, T/C [31]: 87.9%
viability, T/C [32]: 93.5%
viability, T/C [33]: 91.3%
viability, T/C [34]: 82.6%
viability, T/C [35]: 71.2%
viability, T/C [36]: 40.1%

From PubChem BioAssay AID1963826 (Molecular Pharmacology Branch, DTP, NCI, 2024)
